# According to patent publication US20210213135A1 (Purdue Research Foundation, priority 2018, published 2021):
# Bridges are numbered along the chain shown (N, C = ends). Primed or numbered codes have the meaning given here. Where no end group is shown, it is not given here. [ ]: non-standard residue; d: D form. mp4″ = 4 mini PEG linker (mini-PEG spacer); PEG10′ = polyethylene glycol 10 linker; minipeg = minipeg spacer; Dap = NC[C@H](N)C(=O)O
# Legend:
# [1] = system: Swiss Webster fracture-bearing mice (healed femur); experiment: postmortem 4 point bend of the healed femur; format: in vivo
# Source text: All in vivo data included herein are from Swiss Webster mice. All mice received an osteotomy on their right femur and received subcutaneous drug administration daily for either 2,3 or 4 weeks, or 17 days, as indicated, for each compound. 1× concentration represents 1 nmol/day, 10× represents 10 nmol/day, 100× represents 100 nmol/day most studies have an n of 5.
# The term “Peak Load” means a postmortem 4 point bend of the healed femur. Peak load represents the maximum force the healed femur withstood before it refractured.
# The targeted conjugates were synthesized using standard Fmoc solid-phase peptide synthesis, as described above. To ensure the conjugates' activity, mouse pre-osteoblast ([…]) cells were treated with the targeted and untargeted compounds for three days at concentrations from 1 pM to 100 nM. After three days of treatment, the cells were harvested, and the RNA was purified from the cells. Expression levels of ALP, RUNx2 (transcription factor for osteoblast differentiation), osterix (OSX), osteopontin (OPN), collagen 1A (Col-1A), OPG, RANKL, sclerostin gene (SOST), and OC were quantified via quantitative reverse transcription polymerase chain reaction (RT-qPCR). Once the biological activity of the conjugates was confirmed, they were tested in vivo in a fracture model. Aseptic surgical techniques were used to place a 23-gage needle as in intramedullary nail in the femur of anesthetized, 12-week-old Swiss Webster mice for internal fixation before fracture. Femur fractures were induced using a drop weight fracture device from RISystem. The mice received buprenorphine for three days post fracture. The mice were dosed subcutaneously each day for three weeks or 17 days. Fracture healing was assessed using microCT (Scanco Medical Ag). Morphometric parameters were quantified in the 100 widest slices of the fracture callus. Trabecular thickness (Tb.Th.), trabecular spacing (Tb.Sp.), total volume (TV), and volume of calcified callus (BV) were calculated. Fractured femurs were tested for strength in a four-point bend to failure using an Electro Force TestBench (TA Instruments). Lower supports were 10 mm apart on the anterior face of the femur in contact with the proximal and distal diaphysis. Upper supports were 4 mm apart and spanned the entire fracture callus on the diaphysis. Force was applied from the posterior face of the femur with a displacement rate of 0.3 mm/sec. Peak load, yield load, stiffness, displacement post yield, work to fracture, and deformation data were generated. Statistical analysis was performed using a two-way analysis of variance (ANOVA) and a Tukey post-hoc analysis with significance reported at the 95% confidence level. All animal experiments were performed in accordance with protocols approved by Purdue University's Institutional Animal Care and Use Committee (IACUC).
# [2] = system: Swiss Webster fracture-bearing mice (fracture callus); experiment: micro CT of the fracture callus in the femur fracture model; format: in vivo
# [3] = 2 weeks, 1, 10 and 100 nmol/day
# [4] = 3 weeks, 1, 10 and 100 nmol daily s.c., n=5
# [5] = 3 weeks, 0.1, 1 and 10 nmol daily s.c.
# [6] = 3 weeks, 1 and 10 nmol daily s.c., n=10
# [7] = 4 weeks, 1, 10 and 100 nmol/day
# [8] = 3 weeks, 0.1, 1 and 10 nmol daily s.c., n=5
# [9] = 17 days, 0.1, 1 and 10 nmol daily s.c., n=5
# [10] = 17 days, 1, 10 and 100 nmol daily s.c., n=5
substance,measurement,setting,value
"BFP-D10: SEQ ID NO: 1, bone forming peptide conjugated with 10 aspartate acids: DDDDDDDDDDGQGFSYPYKAVFSTQ (BFP D10)",Peak load of fractured femurs,"[1]; after 2 weeks, 100 nmol/day (100×), compared to PBS",obtained the maximum peak load
same,BV/TV,[2]; [3],dose dependent manner
same,TbSp,[2]; [3],dose dependent manner
"CBD_MP4_(D)E10: SEQ ID NO: 32, 1-28 of osteopontin followed by 4 peg 2 spacers followed by ten d glutamic acids (HNGVFKYRPRYYLYKHAYFYPHLKRFPVQEEEEEEEEEE; 4 PEG2 spacers; D-glutamic acids; CBD _MP4_e10)",Work to fracture,[1]; [4],improves bone strength
same,BV/TV,[2]; [4],raises bone density
same,Tbth (trabecular thickness),[2]; [4],raises bone quality
"CBM D10: SEQ ID NO: 9, collagen binding motif of osteopontin conjugated with 10 aspartate acids",BV/TV,[2]; [5],dose dependent manner
"CBM(1-19)_D10: SEQ ID NO: 31, truncated version (1-19) of the collagen binding motif of human osteopontin targeted by D10 (HDDDDDDDDDDGLRSKSKKFRRPDIQYPDA; CBM(1-19)-D10 collagen binding motif)",Max load (peak load),[1]; [4],improves bone strength
same,BV/TV,[2]; [4],raises bone density
same,Tbth (trabecular thickness),[2]; [4],raises bone quality
"CNP D10: SEQ ID NO: 7, C-type Natriuretic peptide conjugated with 10 aspartate acids (HDDDDDDDDDDGLSKGCFGLKLDRIGSMSGLGC; disulfide 17-33)",BV/TV,"[2]; 4 weeks, 1 and 10 nmol/day",dose dependent manner
"CTC_mp4_(D)E10: SEQ ID NO: 21, CTC linked via 4 minipegs to 10 (D) glutamic acids (H[dE][dE][dE][dE][dE][dE][dE][dE][dE][dE][minipeg][minipeg][minipeg][minipeg]IAGVGGEKSGGF)",Max load (peak load),[1]; [6],raises bone strength
same,Work to fracture,[1]; [6],raises bone strength
same,BV/TV,[2]; [6],raises bone density
"CTC_peg10_(D)E10: SEQ ID NO: 20, chemotactic collagen fragment CTC linked via polyethylene glycol 10 to 10 (D) glutamic acids (H[dE][dE][dE][dE][dE][dE][dE][dE][dE][dE][PEG10′]IAGVGGEKSGGF)",Max load (peak load),[1]; [4],improves bone strength
same,BV/TV,[2]; [5],raises bone density
"DGEA_mp4_(D)E10: SEQ ID NO: 24, DGEA with Serine and Proline on C terminus, 4 minipeg spacers and ten d glutamic acids (H[dE][dE][dE][dE][dE][dE][dE][dE][dE][dE][minipeg][minipeg][minipeg][minipeg]DGEASP)",Max load (peak load),[1]; [4],raises bone strength
same,Work to fracture,[1]; [4],raises bone strength
same,BV (bone volume),[2]; [4],raises bone mineralization
same,BV/TV,[2]; [4],raises bone density
"Ghrelin-D10: SEQ ID NO: 5, Ghrelin D10 with Ser-3 replaced with diaminopropionic acid (HG[Dap]FLSPEHQKAQQRKESKKPPAKLQPRDDDDDDDDDD; ends and bridges not checked)",BV/TV,[2]; [7],dose dependent manner
"IKVAV_mp4_(D)E10: SEQ ID NO: 26, laminin fragment IKVAV conjugated via 4 minipegs with 10 glutamic acids (H[dE][dE][dE][dE][dE][dE][dE][dE][dE][dE][minipeg][minipeg][minipeg][minipeg]GQAASIKVAVSADR)",Max load (peak load),[1]; [8],raises bone strength
same,Work to fracture,[1]; [8],raises bone strength
same,BV/TV,[2]; [5],raises bone density
same,BV (bone volume),[2]; [8],raises bone mineralization
"LN2_P3_mp4_(D)E10: SEQ ID NO: 27, laminin a2 motif DLTIDDSYWYRI with N terminally attached minipeg 4 spacer and targeting ligand (H[dE][dE][dE][dE][dE][dE][dE][dE][dE][dE][mp4″]DLTIDDSYWYRI)",Max load (peak load),[1]; [9],raises bone strength
same,Work to fracture,[1]; [9],raises bone strength
same,BV (bone volume),[2]; [9],raises bone mineralization
same,BV/TV,[2]; [9],raises bone density
"MGF D10: SEQ ID NO: 11, Mechano-growth factor with 10 aspartate acids: DDDDDDDDDDYQPPSTNKNTKSQRRKGSTFEEHK (Mechano-growth factor (MGF) D10, an IGF-I fragment)",BV/TV,"[2]; 4 weeks, 1 and 10 nmol/day",dose dependent manner
"ODP D10: SEQ ID NO: 13, Osteopontin-derived peptide conjugated with 10 aspartate acids (DDDDDDDDDD[mp4″]DVDVPDGRGDSLAYG)",BV/TV,"[2]; 4 weeks, 1 nmol/day",healing was reflected as BV/TV
"OGP-D10: SEQ ID NO: 2, osteogenic growth peptide conjugated with 10 aspartate acids: DDDDDDDDDDALKRQGRTLYGFGG (OGP D10)",BV/TV,"[2]; 2 weeks, 1 and 100 nmol/day",dose dependent manner
same,TbSp,"[2]; 2 weeks, 1 and 100 nmol/day",dose dependent manner
same,TbTh,"[2]; 2 weeks, 1 and 100 nmol/day",dose dependent manner
"P3_mp4_(D)E10: SEQ ID NO: 29, P3 fragment of bone sialoprotein followed by a 4 minipeg spacer and 10 (D) glutamic acids (HYESENGEPRGDNYRAYEEEEEEEEEE; 4 minipeg spacer; D-glutamic acids; P3_mp4_e10)",Max load (peak load),[1]; [10],raises bone strength
same,Work to fracture,[1]; [10],raises bone strength
same,BV (bone volume),[2]; [10],raises bone mineralization
same,BV/TV,[2]; [10],raises bone density
"P4 D10: SEQ ID NO: 10, P4 (knuckle epitope fragment of hBMP-2) conjugated with 10 aspartate acids (HKIPKASSVPTELSAISTLYLDDDDDDDDDD; P4 D10-a BMP2 fragment)",BV (bone volume),"[2]; 4 weeks, 1 nmol/day",healing was reflected
same,BV/TV,"[2]; 4 weeks, 1 and 10 nmol/day",dose dependent manner
"P-15_(D)E10: SEQ ID NO: 22, P15 collagen fragment conjugated with 10 glutamic acids (HGTPGPQGIAGQRGVV[dE][dE][dE][dE][dE][dE][dE][dE][dE][dE])",Max load (peak load),[1]; [8],raises bone strength
same,BV/TV,[2]; [5],raises bone density
"P-15_mp4_(D)E10: SEQ ID NO: 23, a P15 fragment connect via 4 peg2 spacers to (D)E10 bone targeting ligand (HGTPGPQGIAGQRGVVEEEEEEEEEE; 4 PEG2 spacers; D-glutamic acids; P15_mp4_e10)",Max load (peak load),[1]; [4],raises bone strength
same,Work to fracture,[1]; [4],raises bone strength
same,BV (bone volume),[2]; [4],raises bone mineralization
same,BV/TV,[2]; [4],raises bone density
"PHSRN_mp4_(D)E10: SEQ ID NO: 28, fibronectin peptide PHSRN with (D)e10 targeting ligand attached to N terminus via minipeg spacer (H[dE][dE][dE][dE][dE][dE][dE][dE][dE][dE][mp4″]PHSRN)",Max load (peak load),[1]; [9],raises bone strength
same,Work to fracture,[1]; [9],raises bone strength
same,BV (bone volume),[2]; [9],raises bone mineralization
same,BV/TV,[2]; [9],raises bone density
"Preptin D10: SEQ ID NO: 3, Preptin conjugated with 10 aspartate acids (HDVSTSQAVLPDDFPRYDDDDDDDDDD; Preptin D10)",BV (bone volume),[2]; [3],dose dependent manner
same,BV/TV,[2]; [3],dose dependent manner
same,TbTh,[2]; [3],dose dependent manner
"VIP D10: SEQ ID NO: 8, Vasoactive intestinal peptide conjugated with D10 (HHSDAVFTDNYTRLRKQMAVKKYLNSILNDDDDDDDDDD; Vasoactive intestinal peptide with D10 (VIP D10))",BV/TV,"[2]; 4 weeks, 1 nmol/day",healing was reflected as BV/TV
same,TbTh,"[2]; 4 weeks, 1 nmol/day",healing was reflected
"pBMP9 D10: SEQ ID NO: 6, peptide from knuckle epitope of human BMP-9 targeted with D10 (CGGKVGKACCVPTKLSPISVLYK[mp4″]DDDDDDDDDD; cysteine pairing not given here)",BV (bone volume),[2]; [7],dose dependent manner
same,BV/TV,[2]; [7],dose dependent manner
